Data taken from patent publication US12084430B2, “Tricyclic urea compounds as JAK2 V617F inhibitors” (Incyte Corporation, priority 2022, dated 2024).

Tests used:
[1] = test system: FLT3; assay: FLT3 enzymatic assay; format: biochemical
Experimental: Example C. FLT3 Enzymatic Assay
The kinase assays were carried out at room temperature in assay buffer (HEPES 50 mM, pH 7.0, NaN3 0.02%, BSA 0.01%, Orthovanadate 0.1 mM, DTT 1 mM, MgCl2 10 mM) in a final volume of 10 μL. Testing compounds were prepared by serial dilution in DMSO and transferred to the plate wells by ECHO liquid handler (Labcyte) with 0.5% DMSO in the final assay. […]. Reactions were initiated by the addition of 5 μL ATP in assay buffer. The final 10 μL kinase reaction consists of 0.011 nM FLT3, 1 mM ATP, 500 nM TK Substrate-biotin and SEB reagent 62.5 nM in assay buffer. […] The plates were then sealed and centrifuged at 1800 rpm for 2 minutes. After 60 minutes incubation at room temperature, the product activity was determined by measuring the fluorescence at 620 nm and 665 nm on Pherastar microplate reader (BMG Labtech). A ratio is calculated (665/620 nm) for each well. Wells with DMSO only were served as the positive controls and wells containing no ATP were used as negative controls. IC50 determination was performed by fitting the curve of percent control activity versus the log of the compound concentration using the GraphPad Prism 7.0 software.

[2] = test system: STAT5 (Tyr694) phosphorylation in SET-2 cells; assay: STAT5 (Tyr694) phosphorylation cell based assay; conditions: Homo sapiens, pSTAT5, 2 hours, read-out: SET2 IC50
Experimental: Example E. STAT5 (Tyr694) Phosphorylation Cell Based Assay
SET-2 cells was purchased from DSMZ (Germany). RPMI1640 medium, Fetal Bovine Serum and 384-white sold flat-bottom small volume plate were purchased from Thermo Fisher Scientific (Waltham, MA). Phospho-STAT5 (Tyr694) HTRF kit was purchased from Perkin Elmer (Waltham, MA).
SET-2 cells were cultured in RPMI media with 20% FBS at 37° C. in humidified incubator supplied with 5% CO2. On the day of assay, the cells were centrifuged to remove the culture media and resuspended with prewarmed RPMI with 10% FBS. Testing compounds were prepared by serial dilution in DMSO and 50 nL/well test compounds were transferred to the 384 white low volume cell culture plate (Greiner Bio-one) by ECHO liquid handler (Labcyte). The cells were then dispensed with Multidrop (Thermo Fisher, Waltham, MA) at 10 μL/well (7×10^6 cells/mL) with 0.5% DMSO in the final assay. After the treated cells were incubated for 2 hours at 37° C./5% CO2 incubator, 4 μL/well supplemented lysis buffer (100× blocking buffer diluted 25 fold in 4× lysis buffer, Perkin Elmer) were added and incubated at room temperature for 90 min on orbital shaker at 600 rpm. Phospho-STAT5 Cryptate antibody and Phospho-STAT5 d2 antibody (1:1 vol/vol) were premixed and diluted 20 fold with in the detection buffer (Perkin Elmer). 4 μL of the premixed antibody solution were added to each well followed with 24 hours incubation at room temperature on orbital shaker at 600 rpm. The product activity was determined by measuring the fluorescence at 620 nm and 665 nm on Pherastar microplate reader (BMG Labtech). A ratio is calculated (665/620) for each well. Wells with DMSO only served as the positive controls and wells containing high concentration of control compound were used as negative controls. IC50 determination was performed by fitting the curve of percent control activity versus the log of the compound concentration using the GraphPad Prism 7.0 software.

[3] = test system: pSTAT5 signaling in SET-2 cells in whole blood; assay: pSTAT5 SET-2 whole blood MSD assay; format: cell-based; conditions: Homo sapiens, pSTAT5, 2 hour, read-out: SET2 WB IC50
Experimental: Example F. pSTAT5 SET-2 Whole Blood MSD Assay
SET-2 cells shipped from ABS, RPMI1640 medium, Fetal Bovine Serum from Gibco, Phospho-STAT5a,b Whole Cell Lysate Kit from Mesoscale, Retronectin (Recombinant Human Fibronectin Fragment) from TaKaRa, 96 well cell culture plate flat bottom from Corning, lysis buffer from Cell Signaling Technology, and sterile PBS from Gibco. Whole Blood from by BioIVT.
SET-2 cells were cultured in RPMI media with 20% FBS at 37° C. humidified incubator supplied with 5% CO2. On the day of the assay, 40 uL per well of diluted retronectin working solution was added to sterile 96-well clear flat bottom tissue culture plates (1:200 dilution of retronectin in sterile PBS) and incubated at 37 C for 1 hour. After 1 hour, the retronectin working solution was aspirated and SET-2 cells were seeded at 100,000/well in RPMI+20% FBS. Cells were incubated overnight at 37° C. and 5% CO2. The next day, the medium was removed and 40 μL of diluted compounds in serum-free RPMI and whole blood was added to the cells for a 2 hour incubation at 37° C. and 5% CO2. The compound starting concentration is 20 μM and 2.5 fold serial diluted down to 0.21 nM. The whole blood and compound mixture was then aspirated off using the BlueCat plate washer and washed 1× with PBS. Cells were lysed by adding 40 μL of 3× complete lysis buffer and shaken at room temperature for 45-60 minutes (complete lysis buffer consists of Cell Signaling Technology lysis buffer diluted to 3× and supplemented with Mesoscale's protease inhibitor, phosphatase I inhibitor, and phosphatase II inhibitor). The pSTAT5 MSD plates were blocked by adding 150 μL of Blocker A solution per well to the MSD plates and incubated at room temperature with shaking at 400 rpm for one hour or longer. After blocking, plates were washed 3× with 300 μL/well of IX Tris Wash Buffer. After lysis, added 25 μL per well of lysed sample was added to MSD plate and incubated with shaking at 4° C. wrapped in foil overnight. The next day, plates were washed again and 25 μL/well of diluted 1× Detection Antibody Solution, wrapped in foil, and incubated at room temperature with shaking at 400 rpm for 1 hour. Plates were then washed again and lastly, 150 μL/well of 1× Read Buffer T was added to all wells. Plates were analyzed on MSD Discovery within 5 minutes. […] Data analysis was performed in GraphPad Prism using a 4-parameter fit and data was reported as Average±SD.

Compound	Selectivity FLT3/JH2 V617F [1]	IC50 [2]	IC50 [3]
[2H]C([2H])([2H])n1c(=O)n([C@@H]2CC[C@@H](NC(=O)OC)C2)c2c3c(-c4ccc5c(c4)COC5(C)C)c(-c4cn(CC(F)F)nc4F)[nH]c3ncc21 [Example 12, Methyl ((1R,3R)-3-(7-(1-(2,2-difluoroethyl)-3-fluoro-1H-pyrazol-4-yl)-8-(1,1-dimethyl-1,3-dihydroisobenzofuran-5-yl)-3-(methyl-d3)-2-oxo-3,6-dihydroimidazo[4,5-d]pyrrolo[2,3-b]pyridin-1(2H)-yl)cyclopentyl)carbamate]	****** (selectivity of >12500-fold)	≤ 300 nM	≤ 2500 nM
[2H]C([2H])([2H])n1cc(-c2[nH]c3ncc4c(c3c2-c2ccc3c(c2)COC3(C)C)n([C@@H]2CC[C@@H](NC(=O)OC)C2)c(=O)n4C)c(F)n1 [Example 11, Methyl ((1R,3R)-3-(8-(1,1-dimethyl-1,3-dihydroisobenzofuran-5-yl)-7-(3-fluoro-1-(methyl-d3)-1H-pyrazol-4-yl)-3-methyl-2-oxo-3,6-dihydroimidazo[4,5-d]pyrrolo[2,3-b]pyridin-1(2H)-yl)cyclopentyl)carbamate]	****** (selectivity of >12500-fold)	≤ 300 nM	≤ 2500 nM
[2H]C([2H])([2H])n1cc(-c2[nH]c3ncc4c(c3c2-c2ccc(C(C)(C)O)cc2)n([C@@H]2CC[C@@H](NC(=O)OC)C2)c(=O)n4C([2H])([2H])[2H])c(F)n1 [Example 10, Methyl ((1R,3R)-3-(7-(3-fluoro-1-(methyl-d3)-1H-pyrazol-4-yl)-8-(4-(2-hydroxypropan-2-yl)phenyl)-3-(methyl-d3)-2-oxo-3,6-dihydroimidazo[4,5-d]pyrrolo[2,3-b]pyridin-1(2H)-yl)cyclopentyl)carbamate]	**** (selectivity of >1750-fold to ≤5000-fold)	≤ 300 nM	≤ 2500 nM
COC(=O)N[C@@H]1CC[C@@H](n2c(=O)n(C)c3cnc4[nH]c(-c5cn(C)nc5OC)c(-c5ccccc5)c4c32)C1 [Example 2, Methyl ((1R,3R)-3-(7-(3-methoxy-1-methyl-1H-pyrazol-4-yl)-3-methyl-2-oxo-8-phenyl-3,6-dihydroimidazo[4,5-d]pyrrolo[2,3-b]pyridin-1(2H)-yl)cyclopentyl)carbamate]	**** (selectivity of >1750-fold to ≤5000-fold)	300 to 800 nM	2500 to 5000 nM
[2H]C([2H])([2H])n1cc(-c2[nH]c3ncc4c(c3c2-c2ccc3c(cnn3C(C)C)c2)n([C@@H]2CC[C@@H](NC(=O)OC)C2)c(=O)n4C([2H])([2H])[2H])c(F)n1 [Example 13, Methyl ((1R,3R)-3-(7-(3-fluoro-1-(methyl-d3)-1H-pyrazol-4-yl)-8-(1-isopropyl-1H-indazol-5-yl)-3-(methyl-d3)-2-oxo-3,6-dihydroimidazo[4,5-d]pyrrolo[2,3-b]pyridin-1(2H)-yl)cyclopentyl)carbamate]	****** (selectivity of >12500-fold)	≤ 300 nM	≤ 2500 nM
[2H]C([2H])([2H])n1cc(-c2[nH]c3ncc4c(c3c2-c2ccc3c(cnn3C(C)C)c2)n([C@@H]2CC[C@@H](NC(=O)OC)C2)c(=O)n4C)c(F)n1 [Example 16, Methyl ((1R,3R)-3-(7-(3-fluoro-1-(methyl-d3)-1H-pyrazol-4-yl)-8-(1-isopropyl-1H-indazol-5-yl)-3-methyl-2-oxo-3,6-dihydroimidazo[4,5-d]pyrrolo[2,3-b]pyridin-1(2H)-yl)cyclopentyl)carbamate]	***** (selectivity of >5000-fold to ≤12500-fold)	≤ 300 nM	≤ 2500 nM
[2H]C([2H])([2H])n1cc(-c2[nH]c3ncc4c(c3c2-c2cc(F)c3c(cnn3C([2H])([2H])[2H])c2)n([C@@H]2CC[C@@H](NC(=O)OC)C2)c(=O)n4C([2H])([2H])[2H])c(F)n1 [Example 17, Methyl ((1R,3R)-3-(8-(7-fluoro-1-(methyl-d3)-1H-indazol-5-yl)-7-(3-fluoro-1-(methyl-d3)-1H-pyrazol-4-yl)-3-(methyl-d3)-2-oxo-3,6-dihydroimidazo[4,5-d]pyrrolo[2,3-b]pyridin-1(2H)-yl)cyclopentyl)carbamate]	****** (selectivity of >12500-fold)	≤ 300 nM	≤ 2500 nM
[2H]C([2H])([2H])Oc1ccc(-c2c(-c3cn(C([2H])([2H])[2H])nc3F)[nH]c3ncc4c(c23)n([C@@H]2CC[C@@H](NC(=O)OC)C2)c(=O)n4C([2H])([2H])[2H])cc1 [Example 9, Methyl ((1R,3R)-3-(7-(3-fluoro-1-(methyl-d3)-1H-pyrazol-4-yl)-8-(4-(methoxy-d3)phenyl)-3-(methyl-d3)-2-oxo-3,6-dihydroimidazo[4,5-d]pyrrolo[2,3-b]pyridin-1(2H)-yl)cyclopentyl)carbamate]	***** (selectivity of >5000-fold to ≤12500-fold)	≤ 300 nM	2500 to 5000 nM
COC(=O)N[C@@H]1CC[C@@H](n2c(=O)n(C)c3cnc4[nH]c(-c5cn(C)nc5OC)c(-c5cccc(F)c5)c4c32)C1 [Example 3, Methyl ((1R,3R)-3-(8-(3-fluorophenyl)-7-(3-methoxy-1-methyl-1H-pyrazol-4-yl)-3-methyl-2-oxo-3,6-dihydroimidazo[4,5-d]pyrrolo[2,3-b]pyridin-1(2H)-yl)cyclopentyl)carbamate]	**** (selectivity of >1750-fold to ≤5000-fold)	300 to 800 nM	5000 to 7500 nM
COC(=O)N[C@@H]1CC[C@@H](n2c(=O)n(C)c3cnc4[nH]c(-c5cn(C)nc5OC)c(-c5ccc(OC)c(F)c5)c4c32)C1 [Example 4, Methyl ((1R,3R)-3-(8-(3-fluoro-4-methoxyphenyl)-7-(3-methoxy-1-methyl-1H-pyrazol-4-yl)-3-methyl-2-oxo-3,6-dihydroimidazo[4,5-d]pyrrolo[2,3-b]pyridin-1(2H)-yl)cyclopentyl)carbamate]	***** (selectivity of >5000-fold to ≤12500-fold)	300 to 800 nM	≤ 2500 nM
